Data from patent publication US11166946B2 (CURATIS AG, priority 2018, dated 2021).
Read-outs that look alike come from different tables or passages of the source.

Assays:
[1] = oral administration; biphasic clearance; cited from earlier work
[2] = test system: platelets; details: in vitro; cited from earlier work
[3] = test system: mouse; details: in vivo, cited from earlier work
[4] = test system: mouse, rat and dog; details: cited from earlier work
[5] = single administration 300 mg, human subjects; cited from earlier work
[6] = test system: patients with peripheral vascular disease; details: 300 mg, PO, t.i.d., 18-month period, 2,304 patients; cited from earlier work
[7] = test system: rat; details: in vivo, cited from earlier work
[8] = test system: patients presenting with migraine with aura; assay: Randomized, double-blind, placebo controlled crossover study, aura events; assay type: in vivo, human
Experimental: A multi-center, randomized, double-blind, placebo controlled crossover study was conducted with picotamide. […] The overall study duration was 7×4 weeks. […] “Aura Events” was one of the parameters that was measured. […] These observations were particularly observed in a subgroup of patients (moderate patients) that on average had 3 to 6 aura events per month prior to study enrollment. Patients with less than 3 aura events per month could be considered mild patients and would therefore benefit to a lesser degree from treatment. Patients with 7 or more aura events could be considered severe patients that are difficult to treat.

**Q.** Which “plasma clearance half-life, first rapid phase” value [1] does the source give for `COc1ccc(C(=O)NCc2cccnc2)cc1C(=O)NCc1cccnc1` [picotamide monohydrate] here?
**A.** The value was “about 2 hours”.

**Q.** Which results are given for `COc1ccc(C(=O)NCc2cccnc2)cc1C(=O)NCc1cccnc1` [picotamide, 4-methoxy-N,N′-bis(pyridin-3-ylmethyl)benzene-1,3-dicarboxamide]?
**A.** inhibition of platelet aggregation, degranulation and TxB2 production [2]: inhibits in vitro platelet aggregation, degranulation, and TxB2 production, in a dose dependent manner; LD50 ([3]; ip): 942 ± 29 mg/kg; LD50 ([3]; po): > 3,000 mg/kg; tolerability after subacute and chronic treatment ([4]; IP and PO, mouse, rat and dog): well tolerated; embryotoxic or teratogenic effects ([4]; in vivo): did not induce embryotoxic or teratogenic effects; time to reach maximum concentration (Tmax) [5]: 30 to 45 min; effectiveness and safety [6]: effective and well-tolerated antiplatelet drug with an incidence of adverse reactions similar to that of placebo; LD50 ([7]; ip): 685 ± 27 mg/kg; LD50 ([7]; po): > 3,000 mg/kg; number of auras (aura events) ([8]; 300 mg twice daily 3×4 weeks, then placebo (Sequence A)): reduces the number of auras even after picotamide administration; duration of continued improvement after switch to placebo ([8]; Sequence A, after 3×4 weeks of picotamide): continued to improve for another 2×4 weeks
